Measurements taken from publication PMC7731310, “Pogostemon cablin Triggered ROS-Induced DNA Damage to Arrest Cell Cycle Progression and Induce Apoptosis on Human Hepatocellular Carcinoma In Vitro and In Vivo” (Molecules, 2020).
Converted amounts (≈) assume the structure as drawn.

Columns and labels:
HepG2 = experiment: MTT cell viability, HepG2; type: cell-based, Human; conditions: for IC50: Homo sapiens, HepG2, 48 hr, mean ± SD; for Selectivity index (SI) BNL CL.2/HepG2 / Selectivity index (SI) MDCK/HepG2 / Selectivity index (SI) SVEC/HepG: IC50 of normal cells/IC50 of HCC cells
Protocol: (§1) HCC cells (5 × 10^3/100 μL), SVEC, MDCK (1 × 10^4/100 μL), and BNL CL.2 cells (4 × 10^4/100 μL) were seeded in a 96-well plate. After incubating overnight at 37 ℃, the cells were treated with serially diluted drug concentrations for 24, 48, and 72 h. The cell viability was measured using an MTT assay.

Mahlavu = experiment: MTT cell viability, Mahlavu; type: cell-based, Human; conditions: for IC50: Homo sapiens, Mahlavu, 48 hr, mean ± SD; for Selectivity index (SI) BNL CL.2/Mahlavu / Selectivity index (SI) MDCK/Mahlavu / Selectivity index (SI) SVEC/Mahlavu: IC50 of normal cells/IC50 of HCC cells
Protocol: as §1

J5 = experiment: MTT cell viability, J5; type: cell-based, Human; conditions: for IC50: Homo sapiens, J5, 48 hr, mean ± SD; for Selectivity index (SI) BNL CL.2/J5 / Selectivity index (SI) MDCK/J5 / Selectivity index (SI) SVEC/J5: IC50 of normal cells/IC50 of HCC cells
Protocol: as §1

Huh7 = experiment: MTT cell viability, Huh7; type: cell-based, Human; conditions: for IC50: Homo sapiens, Huh-7, Huh7, 48 hr, mean ± SD; for Selectivity index (SI) BNL CL.2/Huh7 / Selectivity index (SI) MDCK/Huh7 / Selectivity index (SI) SVEC/Huh7: IC50 of normal cells/IC50 of HCC cells
Protocol: as §1

SVEC = experiment: MTT cell viability, SVEC normal cells; type: cell-based; conditions: Mus musculus, 48 hr, mean ± SD
Protocol: as §1

MDCK = experiment: MTT cell viability, MDCK normal cells; type: cell-based, Canine; conditions: Canis lupus familiaris, 48 hr, mean ± SD
Protocol: as §1

BNL CL.2 = experiment: MTT cell viability, BNL CL.2 normal liver cells; type: cell-based; conditions: Mus musculus, 48 hr, mean ± SD
Protocol: as §1

HepG2 cells = experiment: Regrowth assay (crystal violet), HepG2; conditions: PPa extract 15 μg/mL, sorafenib 0.2 μg/mL, 4 and 8 days
Protocol: (§2) After that, both cell lines were analyzed for flow cytometry. […] During treatments, fresh drugs were changed every two days and harvested the data at 4 and 8 days. After treatment, cells were stained with 0.1% crystal violet and absorbance was measured at 550 nm after dissolving in 0.5% acetic acid. For detection of indicated protein expressions, cells (2 × 10^6) seeded at 10 cm dishes. […] Cell lysates were collected for western blot.

Mahlavu cells = experiment: Regrowth assay (crystal violet), Mahlavu; conditions: PPa extract 15 μg/mL, sorafenib 0.2 μg/mL, 4 and 8 days
Protocol: as §2

Row | IC50 (HepG2) [µg/mL] | IC50 (Huh7) [µg/mL] | Compound | IC50 (Mahlavu) [µg/mL] | IC50 (J5) [µg/mL] | IC50 (SVEC) [µg/mL] | IC50 (MDCK) [µg/mL] | IC50 (BNL CL.2) [µg/mL] | Selectivity index (SI) BNL CL.2/HepG2 (HepG2) | Selectivity index (SI) MDCK/HepG2 (HepG2) | Selectivity index (SI) SVEC/HepG (HepG2) | Selectivity index (SI) BNL CL.2/Mahlavu (Mahlavu) | Selectivity index (SI) MDCK/Mahlavu (Mahlavu) | Selectivity index (SI) SVEC/Mahlavu (Mahlavu) | Selectivity index (SI) BNL CL.2/J5 (J5) | Selectivity index (SI) MDCK/J5 (J5) | Selectivity index (SI) SVEC/J5 (J5) | Selectivity index (SI) BNL CL.2/Huh7 (Huh7) | Selectivity index (SI) MDCK/Huh7 (Huh7) | Selectivity index (SI) SVEC/Huh7 (Huh7) | further results
1 | 2.09 ± 1.63 (≈ 16.1 µM) | 4.88 ± 3.37 (≈ 37.5 µM) | O=c1[nH]cc(F)c(=O)[nH]1 [5-FU, 5-Fluorouracil] | 15 ± 3.71 (≈ 115 µM) | 18.8 ± 0.91 (≈ 144 µM) | 1.69 ± 2.8 (≈ 13 µM) | 8.74 ± 0.53 (≈ 67.2 µM) | > 20 |  |  |  |  |  |  |  |  |  |  |  |  | 
2 | 4.73 ± 3.57 (≈ 8.04 µM) | 5.11 ± 2.08 (≈ 8.68 µM) | COc1cc([C@@H]2c3cc4c(cc3[C@@H](O[C@@H]3O[C@@H]5CO[C@@H](C)O[C@H]5[C@H](O)[C@H]3O)[C@H]3COC(=O)[C@H]23)OCO4)cc(OC)c1O [VP-16, Etoposide] | 4.54 ± 2.17 (≈ 7.71 µM) | 3.01 ± 2.75 (≈ 5.11 µM) | 1.85 ± 0.49 (≈ 3.14 µM) | 3.38 ± 0.43 (≈ 5.74 µM) | 6.43 ± 3.02 (≈ 10.9 µM) | 1.4 | 0.7 | 0.4 | 1.4 | 0.8 | 0.4 | 2.1 | 1.1 | 0.6 | 1.3 | 0.7 | 0.4 | 

Row | Compound | IC50 (HepG2) [µg/mL] | IC50 (Huh7) [µg/mL] | IC50 (Mahlavu) [µg/mL] | IC50 (J5) [µg/mL] | IC50 (SVEC) [µg/mL] | IC50 (MDCK) [µg/mL] | IC50 (BNL CL.2) [µg/mL] | Selectivity index (SI) BNL CL.2/HepG2 (HepG2) | Selectivity index (SI) MDCK/HepG2 (HepG2) | Selectivity index (SI) SVEC/HepG (HepG2) | Selectivity index (SI) BNL CL.2/Mahlavu (Mahlavu) | Selectivity index (SI) MDCK/Mahlavu (Mahlavu) | Selectivity index (SI) SVEC/Mahlavu (Mahlavu) | Selectivity index (SI) BNL CL.2/J5 (J5) | Selectivity index (SI) MDCK/J5 (J5) | Selectivity index (SI) SVEC/J5 (J5) | Selectivity index (SI) BNL CL.2/Huh7 (Huh7) | Selectivity index (SI) MDCK/Huh7 (Huh7) | Selectivity index (SI) SVEC/Huh7 (Huh7) | further results
3 | CNC(=O)c1cc(Oc2ccc(NC(=O)Nc3ccc(Cl)c(C(F)(F)F)c3)cc2)ccn1 [SOR, sorafenib] | 3.52 ± 1.97 (≈ 7.57 µM) | 1.77 ± 4.31 (≈ 3.81 µM) | 6.07 ± 1.06 (≈ 13.1 µM) | 2.39 ± 1.91 (≈ 5.14 µM) | 8.55 ± 2.73 (≈ 18.4 µM) | 6.95 ± 1.45 (≈ 15 µM) | 10.8 ± 5.17 (≈ 23.1 µM) | 3.1 | 2.0 | 2.4 | 1.8 | 1.1 | 1.4 | 4.5 | 2.9 | 3.6 | 6.1 | 3.9 | 4.8 | inhibition of cell regrowth (HepG2 cells): no inhibitory effect; inhibition of cell regrowth (Mahlavu cells): no inhibitory effect
